Measurements reported in patent US20260226048A1, “MULTI-CYCLIC IRAK AND FLT3 INHIBITING COMPOUNDS AND USES THEREOF” (CHILDREN'S HOSPITAL MEDICAL CENTER, priority 2023, published 2026).

Assays:
[1] = system: MOLM14 D835Y cells; assay: MOLM14 D835Y cell viability assay (Cell Titer Glo); type: cell-based; settings: Homo sapiens, MOLM-14, 48 h, cell viability, Cell Titer Glo, 48 hours; read-out: MOLM14 D835Y IC50
Method: Both cell lines have activated FLT3 receptors, each of which carry additional resistance mutations in the kinase domain (D835Y and F691L, respectively).
For viability/cytotoxicity assessments, cells were seeded into 1536-well white polystyrene tissue culture-treated Greiner plates using a Multidrop Combi dispenser (ThermoFisher), in final volume 5 μL of growth media per well, at a density of 1000 cells per well. […] Plates were incubated for 48 hours at standard incubator conditions covered by a stainless steel gasketed lid to prevent evaporation. 48 hours post compound addition, 3 μL of Cell Titer Glo (Promega) were added to each well and plates were incubated at room temperature for 15 minutes with the stainless-steel lid in place. Luminescence readings were taken using a Viewlux imager (PerkinElmer) with a 2 second exposure time per plate.

[2] = biological target: T1, IRAK1 (Homo sapiens, UniProt P51617); assay: RBC HotSpot Kinase Assay, IRAK1; type: biochemical; settings: isolated kinase enzyme, 33P-ATP, P81 filter-binding
T1 construct: purchased Reaction Biology (RBC HotSpot)
T1 sequence (P51617 whole entry): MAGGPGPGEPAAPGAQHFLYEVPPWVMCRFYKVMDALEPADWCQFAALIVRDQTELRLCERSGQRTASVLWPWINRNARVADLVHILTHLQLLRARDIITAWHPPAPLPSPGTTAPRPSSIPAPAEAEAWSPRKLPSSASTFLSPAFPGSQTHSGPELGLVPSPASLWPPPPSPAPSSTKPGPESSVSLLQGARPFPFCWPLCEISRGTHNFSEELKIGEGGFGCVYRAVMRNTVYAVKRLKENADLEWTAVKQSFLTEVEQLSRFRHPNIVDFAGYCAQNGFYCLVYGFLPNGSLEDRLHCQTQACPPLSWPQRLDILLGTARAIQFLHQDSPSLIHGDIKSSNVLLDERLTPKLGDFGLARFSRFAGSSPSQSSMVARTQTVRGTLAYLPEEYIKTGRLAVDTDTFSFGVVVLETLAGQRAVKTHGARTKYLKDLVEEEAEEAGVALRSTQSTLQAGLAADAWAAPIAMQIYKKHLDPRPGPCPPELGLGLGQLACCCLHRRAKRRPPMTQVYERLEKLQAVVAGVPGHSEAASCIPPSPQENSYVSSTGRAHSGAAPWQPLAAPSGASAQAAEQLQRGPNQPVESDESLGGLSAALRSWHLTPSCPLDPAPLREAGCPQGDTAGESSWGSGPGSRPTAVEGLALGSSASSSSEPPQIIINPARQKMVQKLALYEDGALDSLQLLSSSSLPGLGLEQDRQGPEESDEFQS
Text: (§1) This assay uses the isolated kinase enzyme. […] Unlike kinase binding assays that measure competition for ATP, the HotSpot Kinase Assay is a functional assay that measures catalytic activity; as such it measures relative functional potency regardless of the mechanism of enzyme inhibition. This assay uses the form of the various enzymes that are easiest to express, which may not necessarily be the form of the enzyme that exist in the cell. (Sometimes the carboxy terminus has been truncated to aid in expression, or, if it is a receptor kinase, the enzyme itself is isolated from the other parts of the receptor that are involved in regulating kinase activity.)
(§2) The reagent used was as follows: Base Reaction buffer; 20 mM Hepes (pH 7.5), 10 mM MgCl2, 1 mM EGTA, 0.01% Brij35, 0.02 mg/ml BSA, 0.1 mM Na3VO4, 2 mM DTT, 1% DMSO. Required cofactors were added individually to each kinase reaction.

[3] = biological target: T2, IRAK4 (Homo sapiens, UniProt Q9NWZ3); assay: RBC HotSpot Kinase Assay, IRAK4; type: biochemical; parameters: purchased Reaction Biology (RBC HotSpot); settings: isolated kinase enzyme, 33P-ATP, P81 filter-binding
T2 sequence (Q9NWZ3 1-460): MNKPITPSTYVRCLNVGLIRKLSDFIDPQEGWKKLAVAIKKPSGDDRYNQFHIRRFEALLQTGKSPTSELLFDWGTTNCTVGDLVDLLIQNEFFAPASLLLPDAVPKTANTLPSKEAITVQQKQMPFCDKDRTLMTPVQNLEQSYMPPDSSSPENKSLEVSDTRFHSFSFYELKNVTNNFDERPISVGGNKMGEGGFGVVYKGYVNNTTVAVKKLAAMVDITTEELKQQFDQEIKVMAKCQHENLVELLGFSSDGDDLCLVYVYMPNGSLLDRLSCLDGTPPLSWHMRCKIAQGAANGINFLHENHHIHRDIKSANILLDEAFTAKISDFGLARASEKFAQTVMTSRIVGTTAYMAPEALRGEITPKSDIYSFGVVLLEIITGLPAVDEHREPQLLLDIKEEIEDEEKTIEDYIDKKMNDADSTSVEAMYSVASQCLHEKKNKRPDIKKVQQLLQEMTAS
Text: as §1, with “enzyme. This assay is very useful for determining competition of the inhibitor for ATP and/or substrates and for measuring the kinetics of enzyme inhibition.” for “enzyme.”
as §2
The reaction procedure was as follows: • 1) Substrates were prepared in freshly prepared Reaction Buffer. • 2) Any required cofactors were delivered to the substrate solution above. • 3) Kinase was delivered into the substrate solution and gently mixed. • 4) Compounds were delivered in 1000A DM into the kinase reaction mixture by Acoustic technology (Echo550; nanoliter range), followed by incubation for 20 min at room temp. • 5) 33P-ATP was delivered into the reaction mixture to initiate the reaction. • 6) The mixture was incubated for 2 hours at room temperature. • 7) Kinase activity was detected by P81 filter-binding method.

[4] = biological target: T3, FLT3 (Homo sapiens, UniProt P36888); assay: RBC HotSpot Kinase Assay, FLT3; type: biochemical; parameters: purchased Reaction Biology (RBC HotSpot); settings: isolated kinase enzyme, 33P-ATP, P81 filter-binding
T3 sequence (P36888 27-993): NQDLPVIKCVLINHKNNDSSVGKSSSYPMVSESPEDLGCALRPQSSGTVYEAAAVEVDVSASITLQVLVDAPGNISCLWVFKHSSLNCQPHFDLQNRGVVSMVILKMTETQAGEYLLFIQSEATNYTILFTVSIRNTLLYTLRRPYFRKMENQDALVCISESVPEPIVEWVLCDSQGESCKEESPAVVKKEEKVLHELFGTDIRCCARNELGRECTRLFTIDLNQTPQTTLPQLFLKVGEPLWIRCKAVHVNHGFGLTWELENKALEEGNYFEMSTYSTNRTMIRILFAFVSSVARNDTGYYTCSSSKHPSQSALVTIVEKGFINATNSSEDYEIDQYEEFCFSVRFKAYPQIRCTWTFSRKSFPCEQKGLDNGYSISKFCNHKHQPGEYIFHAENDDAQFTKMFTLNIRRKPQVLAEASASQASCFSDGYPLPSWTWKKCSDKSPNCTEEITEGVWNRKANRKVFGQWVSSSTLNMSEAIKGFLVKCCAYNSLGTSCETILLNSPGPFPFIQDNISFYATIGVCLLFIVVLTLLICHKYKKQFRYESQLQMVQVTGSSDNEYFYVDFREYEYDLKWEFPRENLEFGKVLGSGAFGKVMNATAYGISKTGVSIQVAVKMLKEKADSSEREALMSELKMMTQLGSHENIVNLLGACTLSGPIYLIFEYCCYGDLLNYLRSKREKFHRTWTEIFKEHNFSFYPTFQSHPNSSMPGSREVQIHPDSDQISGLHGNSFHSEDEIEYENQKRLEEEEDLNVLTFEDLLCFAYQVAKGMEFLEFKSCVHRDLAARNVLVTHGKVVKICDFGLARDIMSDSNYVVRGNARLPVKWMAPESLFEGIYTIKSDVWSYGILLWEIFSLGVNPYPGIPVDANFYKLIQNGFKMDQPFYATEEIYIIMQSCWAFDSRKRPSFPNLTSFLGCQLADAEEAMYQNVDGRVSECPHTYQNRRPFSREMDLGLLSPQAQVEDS
Text: as §1, §2

Work on `FC(F)COc1cc2ncc(-c3cncc(N[C@H]4CNC[C@@H]4F)n3)n2nc1C1CC1` [Compound 8a, 6-(6-cyclopropyl-7-(2,2-difluoroethoxy)imidazo[1,2-b]pyridazin-3-yl)-N-((3S,4S)-4-fluoropyrrolidin-3-yl)pyrazin-2-amine] yielded an IC50 [1] of 91 nM, an IC50 [2] of 34 nM and an IC50 [3] of 2 nM. It also gave an IC50 [4] of under 0.5 nM.
In the case of `FC(F)COc1cc2ncc(-c3cncc(N[C@@H]4CCCNC4)n3)n2nc1C1CC1` [Compound 9a, (R)-6-(6-cyclopropyl-7-(2,2-difluoroethoxy)imidazo[1,2-b]pyridazin-3-yl)-N-(piperidin-3-yl)pyrazin-2-amine], the IC50 [1] is reported as 41 nM, the IC50 [2] is reported as 199 nM and the IC50 [3] is reported as 11 nM. The IC50 [4] was under 0.5 nM.
Compound `F[C@H]1CNC[C@@H]1Nc1nccc(-c2cnc3cc(OC4CC4)c(C4CC4)nn23)n1` [Compound 10a, 4-(7-cyclopropoxy-6-cyclopropylimidazo[1,2-b]pyridazin-3-yl)-N-((3S,4S)-4-fluoropyrrolidin-3-yl)pyrimidin-2-amine] has an IC50 [1] of 91 nM, an IC50 [2] of 26 nM and an IC50 [3] of 3 nM. The IC50 [4] was under 0.5 nM.
`COc1cc2ncc(-c3ccnc(N[C@H]4CNC[C@@H]4F)n3)n2nc1N1CC(F)(F)C1` [Compound 16a, 4-(6-(3,3-difluoroazetidin-1-yl)-7-methoxyimidazo[1,2-b]pyridazin-3-yl)-N-((3S,4S)-4-fluoropyrrolidin-3-yl)pyrimidin-2-amine] showed an IC50 [1] of 182 nM, an IC50 [2] of 245 nM and an IC50 [3] of 8 nM. The IC50 [4] was under 0.5 nM.
For `COc1cc2ncc(-c3ccnc(N[C@@H]4CCCNC4)n3)n2nc1N1CC(F)(F)C1` [Compound 17a, (R)-4-(6-(3,3-difluoroazetidin-1-yl)-7-methoxyimidazo[1,2-b]pyridazin-3-yl)-N-(piperidin-3-yl)pyrimidin-2-amine], the IC50 [1] was 182 nM, the IC50 [2] was 1420 nM and the IC50 [3] was 215 nM. For the same compound, the IC50 [4] was 4 nM.
`COc1cc2ncc(-c3ccnc(N[C@H]4CNCC[C@@H]4F)n3)n2nc1N1CC(F)(F)C1` [Compound 18a, 4-(6-(3,3-difluoroazetidin-1-yl)-7-methoxyimidazo[1,2-b]pyridazin-3-yl)-N-((3S,4S)-4-fluoropiperidin-3-yl)pyrimidin-2-amine] was tested, and the IC50 [1] was 51 nM, the IC50 [2] was 226 nM and the IC50 [3] was 15 nM. For the same compound, the IC50 [4] was under 0.5 nM.
`COc1cc2ncc(-c3ccnc(N[C@H]4CNC[C@@H]4F)n3)n2nc1C1CC(F)(F)C1` [Compound 20a, 4-(6-(3,3-difluorocyclobutyl)-7-methoxyimidazo[1,2-b]pyridazin-3-yl)-N-((3S,4S)-4-fluoropyrrolidin-3-yl)pyrimidin-2-amine] gave an IC50 [1] of 182 nM, an IC50 [2] of 170 nM and an IC50 [3] of 12 nM. The IC50 [4] was 0.7 nM.
With `COc1cc2ncc(-c3ccnc(N[C@@H]4CCCNC4)n3)n2nc1C1CC(F)(F)C1` [Compound 21a, (R)-4-(6-(3,3-difluorocyclobutyl)-7-methoxyimidazo[1,2-b]pyridazin-3-yl)-N-(piperidin-3-yl)pyrimidin-2-amine] the IC50 [1] was 102 nM, the IC50 [2] was 236 nM and the IC50 [3] was 81 nM. The IC50 [4] was under 0.5 nM.
Compound `COc1cc2ncc(-c3ccnc(N[C@H]4CNCC[C@@H]4F)n3)n2nc1C(C)(C)O` [Compound 40a, 2-(3-(2-(((3S,4S)-4-fluoropiperidin-3-yl)amino)pyrimidin-4-yl)-7-methoxyimidazo[1,2-b]pyridazin-6-yl)propan-2-ol] has an IC50 [1] of 115 nM, an IC50 [2] of 1130 nM and an IC50 [3] of 76 nM. For the same compound, the IC50 [4] was 3 nM.
Compound `COc1cc2ncc(-c3ccnc(N[C@H]4CNC[C@@H]4F)n3)n2nc1C(C)(C)O` [Compound 41a, 2-(3-(2-(((3S,4S)-4-fluoropyrrolidin-3-yl)amino)pyrimidin-4-yl)-7-methoxyimidazo[1,2-b]pyridazin-6-yl)propan-2-ol] has an IC50 [1] of 289 nM, an IC50 [2] of 1590 nM and an IC50 [3] of 36 nM. The IC50 [4] was 1 nM.
Compound `COc1cc2ncc(-c3ccnc(N[C@@H]4CCCNC4)n3)n2nc1C(C)(C)O` [Compound 42a, (R)-2-(7-methoxy-3-(2-(piperidin-3-ylamino)pyrimidin-4-yl)imidazo[1,2-b]pyridazin-6-yl)propan-2-ol] has an IC50 [1] of 363 nM, an IC50 [2] of 3250 nM and an IC50 [3] of 496 nM. For the same compound, the IC50 [4] was 10 nM.
In the case of `COc1cc2ncc(-c3nc(N[C@@H]4CCCNC4)ncc3F)n2nc1C(C)(C)O` [Compound 43a, (R)-2-(3-(5-fluoro-2-(piperidin-3-ylamino)pyrimidin-4-yl)-7-methoxyimidazo[1,2-b]pyridazin-6-yl)propan-2-ol], the IC50 [1] is reported as 23 nM, the IC50 [2] is reported as 50 nM and the IC50 [3] is reported as 29 nM. It also gave an IC50 [4] of 1 nM.
`COc1cc2ncc(-c3nc(N[C@H]4CNC[C@@H]4F)ncc3F)n2nc1C(C)(C)O` [Compound 44a, 2-(3-(5-fluoro-2-(((3S,4S)-4-fluoropyrrolidin-3-yl)amino)pyrimidin-4-yl)-7-methoxyimidazo[1,2-b]pyridazin-6-yl)propan-2-ol] gave an IC50 [1] of 51 nM, an IC50 [2] of 32 nM and an IC50 [3] of 4 nM. The IC50 [4] was under 0.5 nM.
Work on `CC(C)(O)c1ccc2ncc(-c3nc(N[C@H]4CNC[C@@H]4F)ncc3F)n2c1` [Compound 47a, 2-(3-(5-fluoro-2-(((3S,4S)-4-fluoropyrrolidin-3-yl)amino)pyrimidin-4-yl)imidazo[1,2-a]pyridin-6-yl)propan-2-ol] yielded an IC50 [1] of 46 nM, an IC50 [2] of 13 nM and an IC50 [3] of 1 nM. For the same compound, the IC50 [4] was under 0.5 nM.
With `COc1cc2ncc(-c3nc(N[C@H]4CNC[C@@H]4F)ncc3F)n2nc1C1CC(F)(F)C1` [Compound 50a, 4-(6-(3,3-difluorocyclobutyl)-7-methoxyimidazo[1,2-b]pyridazin-3-yl)-5-fluoro-N-((3S,4S)-4-fluoropyrrolidin-3-yl)pyrimidin-2-amine] the IC50 [1] was 29 nM, the IC50 [2] was 3 nM and the IC50 [3] was 0.8 nM. The IC50 [4] was under 0.5 nM.
